For 24 compounds, IG50 results are on record in ChEMBL document CHEMBL1137838, “Synthesis and structure-activity relationships of andrographolide analogues as novel cytotoxic agents” (2004).

What all share (format): functional
In one experiment the test system is U-251. Put plainly: Concentration causing 50% inhibition of cancer cell growth against human CNS U251 cell line.
In the next experiment the test system is NCI-H522. Kind of experiment: Concentration causing 50% inhibition of cancer cell growth against human lung H522 cell line.
The next experiment has as its system SW-620. Kind of experiment: Concentration causing 50% inhibition of cancer cell growth against human colon SW620 cell line.
The next experiment has as its system SK-OV-3. Kind of experiment: Concentration causing 50% inhibition of cancer cell growth against human ovarian SKOV3 cell line.
The next experiment deals with DU-145. Kind of experiment: Concentration causing 50% inhibition of cancer cell growth against human prostate DU145 cell line.
A further experiment has as its system A498. Kind of experiment: Concentration causing 50% inhibition of cancer cell growth against human renal A498 cell line.
The subject of another experiment is NCI/ADR-RES. Put plainly: Concentration causing 50% inhibition of cancer cell growth against human breast MCF-7/ADR cell line.

SMILES strings stand for the structures. Where only a bound is given, the exact number is not on record here.

As to `CC(=O)OC[C@@]1(C)[C@H]2CC[C@@H](C=O)[C@@H](C/C=C3/C(=O)OC[C@H]3OC(C)=O)[C@]2(C)CC[C@H]1OC(C)=O`, the IG50 in the experiment on U-251 came out at 62 µM; in the experiment with NCI-H522 it was 34 µM; with SW-620, 32 µM; with SK-OV-3 it was 3 µM; in the experiment with DU-145, 12 µM.
On to `C=C1CC[C@@H]2[C@](C)(CO)[C@H](O)CC[C@@]2(C)[C@@H]1C/C=C(/C(=O)O)[C@H](O)CO`, for which the IG50 was over 100 µM with U-251; 80 µM in the experiment on NCI-H522; 4 µM in the experiment with A498; over 100 µM with SW-620; over 100 µM in the experiment on SK-OV-3; over 100 µM with DU-145. Also, the IG50 in the experiment on NCI/ADR-RES was determined as 30 µM.
With `CCC(=O)OC[C@@]1(C)[C@H]2CC[C@@]3(CO3)[C@@H](C/C=C3/C(=O)OC[C@H]3OC(=O)/C=C/c3ccc(OC)cc3)[C@]2(C)CC[C@H]1OC(=O)CC`, the IG50 amounted to 3 µM with U-251; 4.8 µM in the experiment on NCI-H522; 3 µM in the experiment with A498; 0.6 µM in the experiment on SW-620; 2 µM in the experiment with SK-OV-3; 2 µM with DU-145. In addition, the IG50 with NCI/ADR-RES is 3 µM.
For `CC(=O)OC[C@@]1(C)[C@H]2CC[C@@]3(CO3)[C@@H](C/C=C3/C(=O)OC[C@H]3O)[C@]2(C)CC[C@H]1OC(C)=O`, the IG50 in the experiment with U-251 is 40 µM; in the experiment with A498, 20 µM; in the experiment with SW-620, 20 µM; in the experiment on SK-OV-3, over 100 µM; with NCI/ADR-RES it was 30 µM.
On to `CC(=O)O[C@@H]1CC[C@]2(C)[C@H](CC[C@@]3(CO3)[C@H]2C/C=C2/C(=O)OC[C@H]2O)[C@]1(C)CO`, for which the IG50 was 45 µM with U-251; 60 µM with NCI-H522; 20 µM in the experiment with A498; over 100 µM with SW-620; 50 µM in the experiment with SK-OV-3; 50 µM in the experiment with DU-145. In the experiment with NCI/ADR-RES, this compound registered an IG50 of 20 µM.
On to `CC(C)(C)OC(=O)NCC(=O)O[C@@H]1COC(=O)/C1=C/C[C@@H]1[C@@]2(CC[C@@H]3[C@](C)(CO)[C@H](O)CC[C@]31C)CO2`, for which the IG50 in the experiment with U-251 is 40 µM; with NCI-H522 it was over 100 µM; in the experiment on A498, 5 µM; in the experiment on SW-620, 40 µM; with SK-OV-3, 6 µM; with DU-145 it was 20 µM. The IG50 in the experiment with NCI/ADR-RES came out at 7 µM.
On to `CCC(=O)OC[C@@]1(C)[C@H]2CC[C@@]3(CO3)[C@@H](C/C=C3/C(=O)OC[C@H]3OC(=O)/C=C/c3ccc(OC)c(OC)c3)[C@]2(C)CC[C@H]1OC(=O)CC`, for which the IG50 in the experiment with U-251 is 2 µM; in the experiment on NCI-H522 it was 7.5 µM; in the experiment on A498, 3.5 µM; in the experiment with SW-620, 0.4 µM; with SK-OV-3, 2.5 µM; in the experiment with DU-145, 2.5 µM. Besides, the IG50 with NCI/ADR-RES is 1.5 µM.
As to `CC(=O)O[C@@H]1COC(=O)/C1=C/C[C@@H]1[C@@]2(CC[C@@H]3[C@](C)(CO)[C@H](O)CC[C@]31C)CO2`, the IG50 is 50 µM in the experiment with U-251; 25 µM in the experiment with NCI-H522; 7 µM in the experiment with A498; 20 µM with SW-620; 5 µM with SK-OV-3; 25 µM in the experiment with DU-145. Moreover, the IG50 in the experiment with NCI/ADR-RES stood at 20 µM.
Regarding `CC(=O)OC[C@@]1(C)[C@H]2CC[C@@]3(CO3)[C@@H](C/C=C3/C(=O)OC[C@H]3OC(=O)CNC(=O)OC(C)(C)C)[C@]2(C)CC[C@H]1OC(C)=O`, the IG50 in the experiment on U-251 was 4 µM; in the experiment with NCI-H522, 4 µM; in the experiment with A498, 20 µM; with SW-620, 3 µM; in the experiment with SK-OV-3, 8 µM; in the experiment with DU-145, 7 µM. In addition, the IG50 in the experiment with NCI/ADR-RES turned out to be 4 µM.
As for `C[C@]1(CO)[C@H]2CC[C@@]3(CO3)[C@@H](C/C=C3/C(=O)OC[C@H]3O)[C@]2(C)CC[C@H]1O`, the IG50 in the experiment on U-251 is 16 µM; with NCI-H522 it was 30 µM; with A498, 30 µM; with SW-620, 30 µM; in the experiment on SK-OV-3, 4 µM; in the experiment on DU-145, 20 µM. Besides, the IG50 in the experiment on NCI/ADR-RES turned out to be 20 µM.
On to `CCC(=O)OC[C@@]1(C)[C@H]2CC[C@@]3(CO3)[C@@H](C/C=C3/C(=O)OC[C@H]3OC(=O)/C=C/c3ccccc3)[C@]2(C)CC[C@H]1OC(=O)CC`, for which the IG50 with U-251 came to 6 µM; in the experiment with NCI-H522, 20 µM; in the experiment with A498, 3 µM; with SW-620, 2.5 µM; with SK-OV-3, 10 µM; in the experiment on DU-145, 4 µM. For the same compound, in the experiment on NCI/ADR-RES, the IG50 came out at 0.08 µM.
`CCC(=O)OC[C@@]1(C)[C@H]2CC[C@@]3(CO3)[C@@H](C/C=C3/C(=O)OC[C@H]3OC(=O)CC)[C@]2(C)CC[C@H]1OC(=O)CC`: the IG50 with U-251 was 3 µM; in the experiment on NCI-H522, 3 µM; in the experiment with SW-620 it was 2 µM; with SK-OV-3 it was 1.36 µM; in the experiment on DU-145, 3 µM.
`CC(=O)O[C@@H]1COC(=O)/C1=C/C[C@@H]1[C@@]2(CC[C@@H]3[C@](C)(CO)[C@H](OC(C)=O)CC[C@]31C)CO2`: the IG50 was 30 µM in the experiment on U-251; 30 µM in the experiment with NCI-H522; 6 µM with A498; 55 µM in the experiment with SW-620; 2.5 µM with SK-OV-3; 6.5 µM in the experiment on DU-145. In the experiment with NCI/ADR-RES, this compound displayed an IG50 of 20 µM.
With `C=C1CC[C@@H]2[C@](C)(CO)[C@H](O)CC[C@@]2(C)[C@@H]1/C=C/C1=CCOC1=O`, the IG50 was 81 µM in the experiment with U-251; over 100 µM in the experiment with NCI-H522; over 100 µM in the experiment with SW-620; 2 µM with DU-145; over 100 µM in the experiment on NCI/ADR-RES.
For the compound `C[C@]1(CO)[C@H]2CC[C@@]3(CO3)[C@@H](C/C=C3/C(=O)OC[C@H]3OC(=O)/C=C/c3ccccc3)[C@]2(C)CC[C@H]1O`, the IG50 in the experiment on U-251 was 6 µM; in the experiment with NCI-H522, 6 µM; with A498 it was 9 µM; in the experiment on SW-620, 0.5 µM; in the experiment with SK-OV-3, 4 µM; with DU-145, 5.5 µM. Moreover, the IG50 with NCI/ADR-RES is 2 µM.
As for `CC(=O)OC[C@@]1(C)[C@H]2CCC3=COC(C4=CCOC4=O)C[C@H]3[C@]2(C)CC[C@H]1OC(C)=O` (stereo partly drawn), the IG50 was found to be 30 µM in the experiment on U-251; 50 µM in the experiment with NCI-H522; 40 µM in the experiment with SW-620; 40 µM in the experiment with SK-OV-3; 40 µM with DU-145; 40 µM in the experiment with NCI/ADR-RES.
Turning to `C=C1CC[C@@H]2[C@](C)(CO)[C@H](O)CC[C@@]2(C)[C@@H]1CCC1C(=O)OC[C@H]1O` (stereo partly drawn), the IG50 is 85 µM in the experiment with U-251; over 100 µM with NCI-H522; over 100 µM in the experiment with SW-620; over 100 µM in the experiment with SK-OV-3; 2 µM with DU-145.
As to `CCC(=O)OC[C@@]1(C)[C@H]2CC[C@@]3(CO3)[C@@H](C/C=C3/C(=O)OC[C@H]3OC(=O)/C=C/c3ccc4c(c3)OCO4)[C@]2(C)CC[C@H]1OC(=O)CC`, the IG50 came out at 35 µM in the experiment with U-251; 3 µM in the experiment with NCI-H522; 6 µM with A498; 65 µM in the experiment on SW-620; 0.3 µM with SK-OV-3; 4 µM with DU-145. The IG50 in the experiment on NCI/ADR-RES amounted to 20 µM.
Consider `CCC(=O)OC[C@@]1(C)[C@H]2CC[C@@]3(CO3)[C@@H](C/C=C3/C(=O)OC[C@H]3OC(=O)CNC(=O)OC(C)(C)C)[C@]2(C)CC[C@H]1OC(=O)CC`, for which the IG50 with U-251 came to 20 µM; in the experiment on NCI-H522, 4 µM; in the experiment on A498, 4 µM; in the experiment with SW-620, 30 µM; with SK-OV-3, 15 µM; with DU-145 it was 20 µM. Further, the IG50 in the experiment on NCI/ADR-RES came out at 15 µM.
Regarding `CC(=O)OC[C@@]1(C)[C@H]2CC[C@@]3(CO3)[C@@H](C/C=C3/C(=O)OC[C@H]3OC(C)=O)[C@]2(C)CC[C@H]1OC(C)=O`, the IG50 in the experiment with U-251 was determined as 2.5 µM; in the experiment on NCI-H522 it was 15 µM; in the experiment on A498, 0.25 µM; with SW-620, 1 µM; with SK-OV-3, 25 µM; in the experiment on DU-145 it was 15 µM. In addition, the IG50 in the experiment with NCI/ADR-RES was 5 µM.
With `CCC(=O)O[C@@H]1COC(=O)/C1=C/C[C@@H]1[C@@]2(CC[C@@H]3[C@](C)(CO)[C@H](OC(=O)CC)CC[C@]31C)CO2`, the IG50 in the experiment on U-251 worked out at 35 µM; in the experiment on NCI-H522, 40 µM; in the experiment with A498, 40 µM; with SW-620, 7 µM; with SK-OV-3, 3 µM; in the experiment with DU-145, 20 µM. This compound had an IG50 in the experiment on NCI/ADR-RES of 30 µM.
On to `CC(=O)OC[C@@]1(C)[C@H]2CC[C@@H](CO)[C@@H](C/C=C3/C(=O)OC[C@H]3OC(C)=O)[C@]2(C)CC[C@H]1OC(C)=O`, for which the IG50 with U-251 was 19 µM; with NCI-H522, 19 µM; with SW-620, 7 µM; in the experiment on SK-OV-3, 3 µM; in the experiment with DU-145, 2 µM.
Turning to `C=C1CC[C@@H]2[C@](C)(CO)[C@H](O)CC[C@@]2(C)[C@@H]1C/C=C1/C(=O)OC[C@H]1O` [ANDROGRAPHOLIDE], the IG50 with U-251 was determined as 3 µM; with NCI-H522 it was 17 µM; with A498 it was 30 µM; in the experiment with SW-620, 10 µM; in the experiment on SK-OV-3, 15 µM; with DU-145, 20 µM. The IG50 in the experiment with NCI/ADR-RES stood at 15 µM.
`C=C1CC[C@@H]2[C@](C)(CO)[C@H](O)CC[C@@]2(C)[C@@H]1CCC1=CCOC1=O` [DEOXYANDROGRAPHOLIDE]: the IG50 with U-251 is over 100 µM; in the experiment on NCI-H522 it was over 100 µM; in the experiment with SW-620, 54 µM; in the experiment on SK-OV-3, 0.18 µM; in the experiment with DU-145, 5 µM.
